Source: patent US7727955B2, “Pharmaceutical compositions based on NK2 antagonists for pediatric use” (Laboratori Guidotti S.p.A., priority 2004, dated 2010)
One block for each compound: values may come before it. Positions of bridges follow the written chain, without caps; N, C: chain ends. Non-standard residues stand in square brackets, D forms with d. Residues, ends and D or L forms follow the SMILES beside them. *: point of attachment. NH(β-GlcNAc) = CC(=O)N[C@@H]1[C@@H](O)[C@H](O)[C@@H](CO)O[C@H]1N*; Dap = NC[C@H](N)C(=O)O

Assays:
[1] = target: T1, NK2 receptors (Rattus norvegicus, UniProt P16610); test: Intestinal transit of a carbon suspension in infant rats, increase induced by NK2 selective agonist β-Ala^8-NKA(4-10); assay type: in vivo; conditions: infant rats aged 7-10 days
T1 construct: prevent the increase in intestinal transit induced by the stimulation of NK2 receptors by the β-Ala^8-NKA(4-10) agonist; from tissue; host or cells: whole animal: infant rats aged 7-10 days (intestine, in vivo)
T1 sequence (P16610 1-390): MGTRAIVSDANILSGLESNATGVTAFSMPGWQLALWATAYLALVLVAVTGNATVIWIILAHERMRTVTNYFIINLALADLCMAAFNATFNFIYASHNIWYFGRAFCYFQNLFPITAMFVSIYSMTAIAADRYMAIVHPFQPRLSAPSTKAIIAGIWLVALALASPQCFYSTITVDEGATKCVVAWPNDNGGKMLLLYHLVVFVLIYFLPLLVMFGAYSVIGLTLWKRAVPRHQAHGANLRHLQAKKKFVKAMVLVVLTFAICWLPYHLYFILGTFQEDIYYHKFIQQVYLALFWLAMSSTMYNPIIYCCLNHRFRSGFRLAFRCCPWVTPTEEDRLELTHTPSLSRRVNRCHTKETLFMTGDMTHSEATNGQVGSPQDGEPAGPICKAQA
Procedure: (§1) The formulations of the present invention were tested for their biological activity in vivo on newborn rats in accordance with the following method:
(§2) a) The NK2 selective agonist β-Ala^8-NKA(4-10) was administered intraperitoneally to infant rats aged between 7 and 10 days, both males and females, at a dose of 15 μg/kg. A 10% suspension of carbon in 1% methylcellulose was then administered orally to the animals at a volume of 15 ml/kg. The same carbon-based suspension was administered to a control group which had not received the NK2 agonist.

[2] = set-up: species or system rats; conditions: rat, in vivo, po
[3] = clinical; conditions: human, in vivo, po
[4] = system: animal models of IBS; conditions: cited from earlier work
[5] = system: infant rats; test: Basal intestinal transit in infant rats without agonist administration; assay type: in vivo; conditions: oral, nepadutant 2.5 mg/kg, measured at 6 hours after administration, no agonist
Procedure: as §1, §2

[6] = system: infantile colics; conditions: clinical evidence from literature; cited from earlier work

Compound: β-Ala^8-NKA(4-10) [reference compound]
increase in intestinal transit after agonist administration ([1]; 15 μg/kg i.p., versus control group without agonist): significant increase in intestinal transit

bioavailability in infant rats [2]: substantially enhanced
bioavailability [3]: 1%
Compound: CC(=O)N[C@@H]1[C@@H](O)[C@H](O)[C@@H](CO)O[C@H]1NC(=O)C[C@@H]1NC(=O)[C@H](CC(C)C)NC(=O)[C@@H]2CNC(=O)C[C@H](NC1=O)C(=O)N[C@@H](Cc1c[nH]c3ccccc13)C(=O)N[C@@H](Cc1ccccc1)C(=O)N2 [Nepadutant, cyclo((Asn(β-D-2-deoxy-2-acetamido-Glc)-Asp-Trp-Phe-Dap-Leu)cyclo(2β-5β))] (cyclo(D(NH(β-GlcNAc))DWF[Dap]L); lactam 2-5)
prevention of the increase in intestinal transit induced by β-Ala^8-NKA(4-10) ([1]; oral, nepadutant 0.5 and 2.5 mg/kg at 2, 4 and 6 hours before agonist 15 μg/kg i.p.): able to prevent the increase in intestinal transit
correction of hyperalgesia [4]: corrects hyperalgesia
effect on basal intestinal transit [5]: no effect on basal intestinal transit

Compound: simethicone
effect versus placebo [6]: no better than placebo
